PubChem BioAssay (NCI)
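All cell lines were grown in 96-well plates and treated with compound for 48 hours. The concentration for 50% growth inhibition is given as GI50. Definition used: TGI = concentration required for complete inhibition of growth.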

Columns and labels:
Assay in all cases: inhibition of tumour cell growth, NCI panel, 48 h
SNB-19 CNS = test system: SNB-19 CNS
IGROV1 ovarian = test system: IGROV1 ovarian
MDA-MB-231 breast = test system: MDA-MB-231 breast
SK-MEL-28 melanoma = test system: SK-MEL-28 melanoma
COLO 205 colon = test system: COLO 205 colon
HCT-116 colon = test system: HCT-116 colon
NCI-H226 lung = test system: NCI-H226 lung
A549 NSCLC = test system: A549 NSCLC
SF-539 CNS = test system: SF-539 CNS
M14 melanoma = test system: M14 melanoma
SF-268 CNS = test system: SF-268 CNS
UO-31 renal = test system: UO-31 renal
NCI-H23 lung = test system: NCI-H23 lung
CCRF-CEM leukemia = test system: CCRF-CEM leukemia
TK-10 renal = test system: TK-10 renal
786-0 renal = test system: 786-0 renal
SK-OV-3 ovarian = test system: SK-OV-3 ovarian
KM12 colon = test system: KM12 colon
T-47D breast = test system: T-47D breast
OVCAR-5 ovarian = test system: OVCAR-5 ovarian
U251 CNS = test system: U251 CNS
SK-MEL-5 melanoma = test system: SK-MEL-5 melanoma
MCF7 breast = test system: MCF7 breast
OVCAR-8 ovarian = test system: OVCAR-8 ovarian
MOLT-4 leukemia = test system: MOLT-4 leukemia
RPMI-8226 leukemia = test system: RPMI-8226 leukemia
HOP-62 NSCLC = test system: HOP-62 NSCLC
SR leukemia = test system: SR leukemia
OVCAR-4 ovarian = test system: OVCAR-4 ovarian
NCI/ADR-RES ovarian = test system: NCI/ADR-RES ovarian
LOX IMVI melanoma = test system: LOX IMVI melanoma
MALME-3M melanoma = test system: MALME-3M melanoma
K-562 leukemia = test system: K-562 leukemia
SN12C renal = test system: SN12C renal
NCI-H522 lung = test system: NCI-H522 lung
SW-620 colon = test system: SW-620 colon
A498 renal = test system: A498 renal
HL-60(TB) leukemia = test system: HL-60(TB) leukemia
SK-MEL-2 melanoma = test system: SK-MEL-2 melanoma
UACC-257 melanoma = test system: UACC-257 melanoma
PC-3 prostate = test system: PC-3 prostate
DU-145 prostate = test system: DU-145 prostate
NCI-H460 lung = test system: NCI-H460 lung
UACC-62 melanoma = test system: UACC-62 melanoma
OVCAR-3 ovarian = test system: OVCAR-3 ovarian
HS 578T breast = test system: HS 578T breast
RXF 393 renal = test system: RXF 393 renal
MDA-MB-435 = test system: MDA-MB-435
SF-295 CNS = test system: SF-295 CNS
CAKI-1 renal = test system: CAKI-1 renal

Structure (SMILES): Nc1cc(N)c2nc(-c3ccccc3)c(Sc3ccc(Cl)c(Cl)c3)nc2c1
- GI50 (SNB-19 CNS): 17 µM
- TGI (SNB-19 CNS): 58.1 µM
- GI50 (IGROV1 ovarian): 2.93 µM
- TGI (IGROV1 ovarian): 27.8 µM
- GI50 (MDA-MB-231 breast): 16.6 µM
- TGI (MDA-MB-231 breast): 54.2 µM
- GI50 (SK-MEL-28 melanoma): 13.7 µM
- TGI (SK-MEL-28 melanoma): 56.9 µM
- GI50 (COLO 205 colon): 10.8 µM
- TGI (COLO 205 colon): 33.6 µM
- GI50 (HCT-116 colon): 9.43 µM
- TGI (HCT-116 colon): 47.9 µM
- GI50 (NCI-H226 lung): 3.05 µM
- TGI (NCI-H226 lung): 9.19 µM
- GI50 (A549 NSCLC): 13.6 µM
- TGI (A549 NSCLC): 51.9 µM
- GI50 (SF-539 CNS): 14.4 µM
- TGI (SF-539 CNS): 41.8 µM
- GI50 (M14 melanoma): 32.2 µM
- TGI (M14 melanoma): > 100 µM
- GI50 (SF-268 CNS): 13.7 µM
- TGI (SF-268 CNS): 51.1 µM
- GI50 (UO-31 renal): 14 µM
- TGI (UO-31 renal): 76.7 µM
- GI50 (NCI-H23 lung): 12.5 µM
- TGI (NCI-H23 lung): 34.5 µM
- GI50 (CCRF-CEM leukemia): 2.52 µM
- TGI (CCRF-CEM leukemia): > 100 µM
- GI50 (TK-10 renal): 14.6 µM
- TGI (TK-10 renal): 31.8 µM
- GI50 (786-0 renal): 22 µM
- TGI (786-0 renal): 92.1 µM
- GI50 (SK-OV-3 ovarian): 14.7 µM
- TGI (SK-OV-3 ovarian): 39.4 µM
- GI50 (KM12 colon): 11.3 µM
- TGI (KM12 colon): > 100 µM
- GI50 (T-47D breast): 13.3 µM
- TGI (T-47D breast): > 100 µM
- GI50 (OVCAR-5 ovarian): 38.9 µM
- TGI (OVCAR-5 ovarian): 59.5 µM
- GI50 (U251 CNS): 10.3 µM
- TGI (U251 CNS): > 100 µM
- GI50 (SK-MEL-5 melanoma): 21.4 µM
- TGI (SK-MEL-5 melanoma): 95.5 µM
- GI50 (MCF7 breast): 5.3 µM
- TGI (MCF7 breast): 37.8 µM
- GI50 (OVCAR-8 ovarian): 24.7 µM
- TGI (OVCAR-8 ovarian): > 100 µM
- GI50 (MOLT-4 leukemia): 4.08 µM
- TGI (MOLT-4 leukemia): > 100 µM
- GI50 (RPMI-8226 leukemia): 3.81 µM
- TGI (RPMI-8226 leukemia): 31.6 µM
- GI50 (HOP-62 NSCLC): 12.4 µM
- TGI (HOP-62 NSCLC): 78.5 µM
- GI50 (SR leukemia): 4.63 µM
- TGI (SR leukemia): 35.3 µM
- GI50 (OVCAR-4 ovarian): 20 µM
- TGI (OVCAR-4 ovarian): > 100 µM
- GI50 (NCI/ADR-RES ovarian): 19.1 µM
- TGI (NCI/ADR-RES ovarian): 60.4 µM
- GI50 (LOX IMVI melanoma): 7.36 µM
- TGI (LOX IMVI melanoma): 24.5 µM
- GI50 (MALME-3M melanoma): 19.6 µM
- TGI (MALME-3M melanoma): 50.3 µM
- GI50 (K-562 leukemia): 16 µM
- TGI (K-562 leukemia): > 100 µM
- GI50 (SN12C renal): 23.2 µM
- TGI (SN12C renal): > 100 µM
- GI50 (NCI-H522 lung): 7.67 µM
- TGI (NCI-H522 lung): 34 µM
- GI50 (SW-620 colon): 20.9 µM
- TGI (SW-620 colon): 83.6 µM
- GI50 (A498 renal): 21.9 µM
- TGI (A498 renal): 49.9 µM
- GI50 (HL-60(TB) leukemia): 8.02 µM
- TGI (HL-60(TB) leukemia): > 100 µM
- GI50 (SK-MEL-2 melanoma): 6.2 µM
- TGI (SK-MEL-2 melanoma): 31.1 µM
- GI50 (UACC-257 melanoma): 17.6 µM
- TGI (UACC-257 melanoma): 59 µM
- GI50 (PC-3 prostate): 5.78 µM
- TGI (PC-3 prostate): 35.9 µM
- GI50 (DU-145 prostate): 11.1 µM
- TGI (DU-145 prostate): 25 µM
- GI50 (NCI-H460 lung): 10.5 µM
- TGI (NCI-H460 lung): 33.5 µM
- GI50 (UACC-62 melanoma): 6.7 µM
- TGI (UACC-62 melanoma): 42.8 µM
- GI50 (OVCAR-3 ovarian): 11.7 µM
- TGI (OVCAR-3 ovarian): 46.4 µM
- GI50 (HS 578T breast): 30 µM
- TGI (HS 578T breast): > 100 µM
- GI50 (RXF 393 renal): 14 µM
- TGI (RXF 393 renal): 56.7 µM
- GI50 (MDA-MB-435): 18.3 µM
- TGI (MDA-MB-435): 60.9 µM
- GI50 (SF-295 CNS): 17.7 µM
- TGI (SF-295 CNS): 60.1 µM
- GI50 (CAKI-1 renal): 14 µM
- TGI (CAKI-1 renal): 41.1 µM
